Assay results as given in US7101878B1 (Agouron Pharmaceuticals, Inc., priority 1998, dated 2006).

Assays:
[1] = Metabolism rate, pmol/min/mg at 1 μM, rat male; assay type: in vitro ADME; details: 1 μM compound
rat GnRH receptor = biological target: T1, rat GnRH receptor (Rattus norvegicus, UniProt P30969); assay: Radioligand binding, 125I-GnRH-A, rat pituitary membranes; parameters: membranes were prepared from rat pituitary; from tissue; host or cells: rat pituitary; details: read-out: rGnRH IC50
T1 sequence (P30969 1-327): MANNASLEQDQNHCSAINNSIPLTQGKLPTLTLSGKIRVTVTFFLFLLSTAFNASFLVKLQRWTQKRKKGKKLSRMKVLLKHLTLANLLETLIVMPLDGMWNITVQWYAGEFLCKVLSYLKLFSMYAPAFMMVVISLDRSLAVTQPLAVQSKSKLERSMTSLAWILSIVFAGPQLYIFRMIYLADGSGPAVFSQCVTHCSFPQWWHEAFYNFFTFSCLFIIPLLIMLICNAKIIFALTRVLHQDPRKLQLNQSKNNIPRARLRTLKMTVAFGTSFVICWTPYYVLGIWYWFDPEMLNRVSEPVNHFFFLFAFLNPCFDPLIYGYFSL
Method: All compounds were diluted in 1% DMSO (final assay concentration) in binding assay buffer. […] Reactions were terminated by rapid filtration onto 96-well Packard GF/C filters soaked in 0.1% polyethyleneimine. Filters were washed three times with PBS buffer, dried and counted on a Packard Topcount by liquid scintillation counting.
Assay conditions were identical for assessing compound activities at other species. […] IC50 values for control peptides and test compounds were calculated utilizing GraphPad Prism™ software.
The reaction mixture was vortexed and incubated for 1 min at room temperature. After one min, the mixture was vortexed and allowed to incubate for an additional minute. 2 ml of 0.5 M acetic acid/1% BSA was added to the reaction tube and the mixture was added to a C18 Sep-Pak cartridge. The cartridge was washed with subsequent washes of 5 ml H2O and 5 ml 0.5M acetic acid and then eluted with 5×1 ml of 60% CH3CN/40% 0.5M acetic acid. The eluate was diluted with 3× volume of HPLC buffer A (0.1% TFA in H2O) and loaded onto a C18 column. […] The radioactive fractions (750 ed/fraction) are collected into clean polypropylene tubes containing 100 μl of 10% BSA. Fractions were assessed for biological activity by radioligand binding.

human GnRH receptor = biological target: T2, human GnRH receptor (Homo sapiens, UniProt P30968); assay: Radioligand binding, 125I-GnRH-A displacement, membranes of HEK 293 cells with human GnRH receptor; details: read-out: hGnRH IC50
T2 construct: expressed in transfected cells; host or cells: HEK 293 (hGnRH-R/293, from Dr. Stuart Sealfon)
T2 sequence (P30968 1-328): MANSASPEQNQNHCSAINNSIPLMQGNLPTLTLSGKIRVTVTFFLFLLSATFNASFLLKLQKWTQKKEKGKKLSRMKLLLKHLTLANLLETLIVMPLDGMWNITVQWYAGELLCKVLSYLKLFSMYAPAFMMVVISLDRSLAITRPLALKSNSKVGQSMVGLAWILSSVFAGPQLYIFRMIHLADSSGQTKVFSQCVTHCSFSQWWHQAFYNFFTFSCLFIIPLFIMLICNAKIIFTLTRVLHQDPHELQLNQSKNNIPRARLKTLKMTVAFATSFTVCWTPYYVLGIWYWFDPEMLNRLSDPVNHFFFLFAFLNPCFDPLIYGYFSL
In short: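 Bound tracer was separated by filtration through polyethyleneimine-soaked GF/C filters and counted by liquid scintillation. IC50 from curve fitting; other species were tested under the same conditions.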

[2] = Metabolism rate, pmol/min/mg at 1 μM, human; assay type: in vitro ADME; details: 1 μM compound
mouse GnRH receptor = biological target: T3, mouse GnRH receptor (Mus musculus, UniProt Q01776); assay: Radioligand binding, 125I-GnRH-A, 293 cells expressing mouse GnRH receptors; details: read-out: mGnRH IC50
T3 construct: expressed in transfected cells; host or cells: 293 cells
T3 sequence (Q01776 1-327): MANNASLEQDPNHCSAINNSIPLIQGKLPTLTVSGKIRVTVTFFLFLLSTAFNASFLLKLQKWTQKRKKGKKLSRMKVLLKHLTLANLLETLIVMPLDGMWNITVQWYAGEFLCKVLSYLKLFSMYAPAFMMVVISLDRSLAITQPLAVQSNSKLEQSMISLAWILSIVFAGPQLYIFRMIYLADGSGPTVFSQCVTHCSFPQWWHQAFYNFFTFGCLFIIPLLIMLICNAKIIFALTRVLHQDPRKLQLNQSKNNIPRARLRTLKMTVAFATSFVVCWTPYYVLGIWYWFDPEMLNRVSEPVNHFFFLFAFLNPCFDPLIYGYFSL
In short: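 Bound label captured on 0.1% polyethyleneimine-treated GF/C filters, washed three times with PBS, counted. IC50 derived; identical set-up for every species.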

[3] = tested on: LH levels in castrated rats; assay: Castrated male rat model, LH suppression; assay type: in vivo
Description: Experimental Protocol: Male Sprague-Dawley (225-250 g) rats were castrated and allowed 10 days postoperative recovery. Ten days post castration animals were instrumented with indwelling femoral venous and arterial catheters to facilitate remote infusions and blood sampling. On the day of the experiment, animals were allowed to acclimate to the procedure room while residing in their home cage. Basal blood samples were drawn from all animals. Following basal sampling, either vehicle (10% DMSO, 10% cremophor/saline), Antide (1.0 μg) or compound 11 (10 mg/kg) was administered intravenously. Blood samples were drawn 10, 60, 90, 120, 180, 240 minutes after injections. Blood was centrifuged, serum collected and stored in −70° freezer until assayed. Serum samples were analyzed using DSL-4600 ACTIVE LH coated-tube immunoradiometric assay kit from Diagnostic Systems Laboratories, Inc.
Surgical removal of the gonads removes circulating testosterone and eliminates the negative feedback of testosterone on the hypothalamus. […] This model seems suitable for evaluating small molecule GnRH antagonists.
Male Sprague-Dawley ([…]) rats were castrated via the scrotal approach under halothane anesthesia. Animals were allowed 14 days post operative recovery prior to study. Thirteen days following castration, animals were anesthetized with halothane and instrumented with indwelling jugular vein cannula. Details of the cannulation procedure have been described previously {Harms and Ojeda, 1974)}. On study day, animals were allowed to acclimate to the procedure room while residing in their home cage. Basal blood samples were drawn from all animals. Immediately following basal sampling, vehicle or test compounds were administered by various routes. The routes of administration employed were intravenous (iv), intramuscular (im), intraperitoneal (ip), subcutaneous (sc) and oral (po). Blood samples were drawn into heparin containing tubes at multiple time points post treatment. Blood was centrifuged immediately, plasma collected and stored in −20° freezer until assayed. Plasma samples were analyzed using DSL-4600 ACTIVE LH coated-tube immunoradiometric assay kit from Diagnostic Systems Laboratories, Inc.
Formulation #1 (denoted with superscript 1): 10% DMSO, 10% Cremophor EL and 80% physiological saline.
Formulation #2 (denoted with superscript 2): 10% Cremophor EL and 90% physiological saline.

[4] = Pharmacokinetic studies / bioavailability in rats; assay type: in vivo, rat; details: for Cmax / Tmax / half-life: rat, plasma; for Cmax / Tmax: po
[5] = female, 10 mg/kg, rat female, p.o. 10 mg/kg, 5 mg/ml solution in 10% DMSO 10% cremophor 80% saline
[6] = male, 20 mg/kg, rat male, p.o. 20 mg/kg, vehicle per footnote (DMSO/cremophor/saline)

Structure (SMILES) | Rat male pmol/min/mg 1 μM [1] [pmol/min/mg] | IC50 (rat GnRH receptor) [nM] | IC50 (human GnRH receptor) [nM] | Human pmol/min/mg 1 μM [2] [pmol/min/mg] | IC50 (mouse GnRH receptor) [nM] | also measured
Cc1cc2c(cc1Cc1ccc(C(=O)Nc3ccc4[nH]ncc4c3)o1)C(C)(C)CCC2(C)C [Compound 109] | 1055 | 140 | 75 | 130 | 140 | –
Cc1cc2c(cc1Cc1ccc(C(=O)NCc3cccc(CNc4ncc(C)c(NCC5CCCO5)n4)c3)o1)C(C)(C)CCC2(C)C (stereo not shown) [Compound 151] | 3043 | 7.2 | 65 | 225 | 5.2 | –
Cc1cc2c(cc1Cc1ccc(C(=O)NCc3cccc(CNc4nccc(N5CCOCC5)n4)c3)o1)C(C)(C)CCC2(C)C [Compound 150] | 3334 | 8 | 80 | 655 | 13 | –
Cc1cc2c(cc1Cc1ccc(C(=O)Nc3ccc4[nH]ccc4c3)o1)C(C)(C)CCC2(C)C [Compound 96] | 1692 | 90 | 40 | 182 | 130 | –
Cc1cc2c(cc1Cc1ccc(C(=O)Nc3cccc(B(O)O)c3)o1)C(C)(C)CCC2(C)C [Compound 119] | – | 1300 | – | – | – | % Max LH Suppression ([3]; 5.0 mg/kg iv): 63%; time of % Max LH Suppression ([3]; 5.0 mg/kg iv): 1 h; ≧50% Suppression Duration ([3]; 5.0 mg/kg iv): 1 h; % Max LH Suppression ([3]; 10 mg/kg iv): 61%; time of % Max LH Suppression ([3]; 10 mg/kg iv): 1 h; ≧50% Suppression Duration ([3]; 10 mg/kg iv): 1 h; % Max LH Suppression ([3]; 20 mg/kg ip): 79%; time of % Max LH Suppression ([3]; 20 mg/kg ip): 2 h; ≧50% Suppression Duration ([3]; 20 mg/kg ip): 2 h; % Max LH Suppression ([3]; 20 mg/kg po): 63%; Range of Plasma Conc. ([3]; 20 mg/kg po): 0.1 µM; time of % Max LH Suppression ([3]; 20 mg/kg po): 2 h; ≧50% Suppression Duration ([3]; 20 mg/kg po): 2 h; Range of Plasma Conc. ([3]; 20 mg/kg sc): 0.2 µM
COc1cc(OC)c(NC(=O)c2ccc(Cc3cc(C)cc4c3OCCC4(C)C)o2)c(OC)c1 [Compound 190.5] | – | – | 350 | 1124 | – | –
Cc1cc2c(cc1Cc1ccc(C(=O)NCc3cccc4ccccc34)o1)C(C)(C)CCC2(C)C [Compound 95] | 3356 | 60 | 31 | 283 | 21 | –
Cc1cc2c(cc1Cc1ccc(C(=O)NCc3cccc(CNc4ccnc(NC[C@@H]5CCCO5)n4)c3)o1)C(C)(C)CCC2(C)C [Compound 176] | 2341 | 3 | – | 273 | 4 | T1/2 ([4]; rat male): 2.8 h
Cc1cc2c(cc1Cc1ccc(C(=O)NCC3CCC(CNc4nccc(NCC5CCCO5)n4)CC3)o1)C(C)(C)CCC2(C)C (stereo not shown) [Compound 92] | 1282 | 27 | 80 | 241 | 42 | –
COc1cc(CO)cc(OC)c1NC(=O)c1ccc(Cc2cc3c(cc2C)C(C)(C)CCC3(C)C)o1 [Compound 159] | 6642 | 5 | 45 | 793 | 16 | –
COc1cccc(OC)c1NC(=O)c1ccc(Cc2c(C)cc(C)cc2C)o1 [Compound 126] | – | 325 | 128 | 544 | 684 | Cmax [4, 5]: 20 nM; Tmax [4, 5]: 0.5 h; half-life ([4]; female, rat female): 1.9 h; Fp.o. ([4]; rat female, 5 mg/ml solution in 10% DMSO 10% cremophor 80% saline): 2% (10 mg/kg)^10
COc1cc(OC)c(NC(=O)c2ccc(Cc3c(C)cc(C)cc3C)o2)c(OC)c1 [Compound 168] | 1087 | 130 | 230 | 407 | 130 | half-life ([4]; male, iv, 10 mg/kg, rat male): 1.8 h; Cmax [4, 6]: 300 nM; Tmax [4, 6]: 1 h; Fp.o. ([4]; rat male, p.o. 20 mg/kg, vehicle per footnote (DMSO/cremophor/saline)): 1% (20 mg/kg)^6
Cc1cc2c(cc1Cc1ccc(C(=O)NC[C@H]3CC[C@H](C(N)=O)CC3)o1)C(C)(C)CCC2(C)C [Compound 156] | 2995 | 270 | 24 | 867 | 400 | –
COC(=O)[C@H]1CC[C@H](CNC(=O)c2ccc(Cc3cc4c(cc3C)C(C)(C)CCC4(C)C)o2)CC1 [Compound 68] | 8125 | 890 | 90 | 2716 | 1010 | –
COCCNc1nccc(NCc2cccc(CNC(=O)c3ccc(Cc4cc5c(cc4C)C(C)(C)CCC5(C)C)o3)c2)n1 [Compound 154] | 4481 | 22 | 150 | 241 | 36 | –
COc1ccc(NC(=O)c2ccc(Cc3cc4c(cc3C)C(C)(C)CCC4(C)C)o2)c(OC)c1 [Compound 99] | 2549 | 108 | 56 | 353 | 105 | –
